Consider one cell line from the supplement of paper PMC10307832.

Common to all, as to assay: relative viability (nuclei count vs DMSO), 5 days (fraction); higher = more cells survive
Compound in the assay “AZD5582 + Bortezomib”: C[C@@H](C(=O)N[C@@H](C1CCCCC1)C(=O)N2CCC[C@H]2C(=O)N[C@@H]3[C@@H](CC4=CC=CC=C34)OCC#CC#CCO[C@@H]5CC6=CC=CC=C6[C@@H]5NC(=O)[C@@H]7CCCN7C(=O)[C@H](C8CCCCC8)NC(=O)[C@H](C)NC)NC [AZD5582] + CC(C)C[C@H](NC(=O)[C@H](Cc1ccccc1)NC(=O)c1cnccn1)B(O)O [Bortezomib] (partner 0.002 µM)
In outline: (§1)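 Dosing by pin tool came one day after lung cancer cell lines were seeded in 1536-well plates, using either one drug or a fixed anchor-drug dose plus five library-drug doses (not always all listed) in √10 steps. After 5 days, nuclei were counted on 4× images. Relative viability is treated-well nuclei count divided by vehicle-well nuclei count, and values are medians of duplicate plates.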

Compound in the assay “AZD5582 + Lapatinib”: C[C@@H](C(=O)N[C@@H](C1CCCCC1)C(=O)N2CCC[C@H]2C(=O)N[C@@H]3[C@@H](CC4=CC=CC=C34)OCC#CC#CCO[C@@H]5CC6=CC=CC=C6[C@@H]5NC(=O)[C@@H]7CCCN7C(=O)[C@H](C8CCCCC8)NC(=O)[C@H](C)NC)NC [AZD5582] + CS(=O)(=O)CCNCc1ccc(-c2ccc3ncnc(Nc4ccc(OCc5cccc(F)c5)c(Cl)c4)c3c2)o1 [Lapatinib] (partner 2 µM)
Put shortly:
as §1

Compound in the assay “AZD5582 + Linsitinib”: C[C@@H](C(=O)N[C@@H](C1CCCCC1)C(=O)N2CCC[C@H]2C(=O)N[C@@H]3[C@@H](CC4=CC=CC=C34)OCC#CC#CCO[C@@H]5CC6=CC=CC=C6[C@@H]5NC(=O)[C@@H]7CCCN7C(=O)[C@H](C8CCCCC8)NC(=O)[C@H](C)NC)NC [AZD5582] + C[C@]1(O)C[C@@H](c2nc(-c3ccc4ccc(-c5ccccc5)nc4c3)c3c(N)nccn32)C1 [Linsitinib] (partner 1 µM)
In outline: as §1

Compound in assay [1]: Cn1nnc2c(C(N)=O)ncn2c1=O [Temozolomide] + C[C@]1(O)C[C@@H](c2nc(-c3ccc4ccc(-c5ccccc5)nc4c3)c3c(N)nccn32)C1 [Linsitinib] (partner 1 µM)
In outline:
as §1

Take NCI-H1703: the relative viability with AZD5582 + Bortezomib (first compound 0.001581 µM) came to 0.228; in the assay with AZD5582 + Bortezomib (first compound 0.005 µM), 0.277; in the assay with AZD5582 + Bortezomib (first compound 0.01581 µM), 0.43; with AZD5582 + Bortezomib (first compound 0.05 µM) it was 0.2; in the assay with AZD5582 + Lapatinib (first compound 0.001581 µM), 0.815; with AZD5582 + Lapatinib (first compound 0.005 µM), 0.691. Further, the relative viability with AZD5582 + Lapatinib (first compound 0.01581 µM) came to 1.16; in the assay with AZD5582 + Lapatinib (first compound 0.05 µM) it was 0.681; with AZD5582 + Linsitinib (first compound 0.005 µM) it was 0.666; in the assay with AZD5582 + Linsitinib (first compound 0.01581 µM), 1.02; with AZD5582 + Linsitinib (first compound 0.05 µM) it was 0.44; in assay [1] (first compound 0.2 µM) it was 0.863. Further, the relative viability in assay [1] (first compound 0.6325 µM) amounted to 0.609; in assay [1] (first compound 2 µM), 1.32; in assay [1] (first compound 6.325 µM), 0.841; in assay [1] (first compound 20 µM), 0.95.
